Key:
[1] = test system: HIV-1 (IIIB); assay: Antiviral assay in MT-4 cells; format: cell-based; conditions: Human immunodeficiency virus 1, MT4, 120 h; HIV-1 IIIB in MT-4 cells, 5 days incubation, Cell Titer Glo; read-out: MT4 EC50
Outline: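 Read-out: CellTiter-Glo luminescence after 5 days at 37 °C, reflecting survival of MT-4 cells infected with HIV-1 IIIB (1:250 fresh stock dilution) versus mock-infected. Compounds serially diluted into RPMI with 10% FBS; AZT at 5 μM served as positive control.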

[2] = Cytotoxicity assay in MT-4 cells; format: cell-based; conditions: human; uninfected MT-4 cells, 5 days incubation, Cell Titer Glo; read-out: MT4 CC50
Outline: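 Viability read by Cell Titer Glo luminescence after 5 days at 37 °C. MT-4 cells, not infected, in complete RPMI (10% FBS), received compound dilution series. Base cytotoxicity set with […] puromycin.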

SMILES | EC50 [1] [nM] | CC50 at 5 days [2] [nM]
CCC(=O)OCOc1c2n(cc(C(=O)NCc3ccc(F)cc3F)c1=O)[C@@H]1CN(C2=O)[C@@H](C)CC[C@]12CC(OC)=NO2 [Example 85, (((3′S,5S,7′R)-10′-((2,4-difluorobenzyl)carbamoyl)-3-methoxy-3′-methyl-1′,11′-dioxo-1′,4′,5′,11′-tetrahydro-3′H,4H,7′H-spiro[isoxazole-5,6′-[2,7]methanopyrido[1,2-a][1,4]diazonin]-12′-yl)oxy)methyl propionate] | 2.25 | 28400
CCC(=O)OCOc1c2n(cc(C(=O)NCc3ccc(F)cc3F)c1=O)[C@@H]1CN(C2=O)[C@@H](C)CC[C@]12CC(C)=NO2 [Example 86, (((3′S,5S,7′R)-10′-((2,4-difluorobenzyl)carbamoyl)-3,3′-dimethyl-1′,11′-dioxo-1′,4′,5′,11′-tetrahydro-3′H,4H,7′H-spiro[isoxazole-5,6′-[2,7]methanopyrido[1,2-a][1,4]diazonin]-12′-yl)oxy)methyl propionate] | 2.53 | 21000
CCCC(=O)OCOc1c2n(cc(C(=O)NCc3ccc(F)cc3F)c1=O)[C@@H]1CN(C2=O)[C@@H](C)CC[C@]12CC(OC)=NO2 [Example 87, (((3′S,5S,7′R)-10′-((2,4-difluorobenzyl)carbamoyl)-3-methoxy-3′-methyl-1′,11′-dioxo-1′,4′,5′,11′-tetrahydro-3′H,4H,7′H-spiro[isoxazole-5,6′-[2,7]methanopyrido[1,2-a][1,4]diazonin]-12′-yl)oxy)methyl butyrate] | 1.8 | 16400
CCCC(=O)OCOc1c2n(cc(C(=O)NCc3ccc(F)cc3F)c1=O)[C@@H]1CN(C2=O)[C@@H](C)CC[C@]12CC(C)=NO2 [Example 88, (((3′S,5S,7′R)-10′-((2,4-difluorobenzyl)carbamoyl)-3,3′-dimethyl-1′,11′-dioxo-1′,4′,5′,11′-tetrahydro-3′H,4H,7′H-spiro[isoxazole-5,6′-[2,7]methanopyrido[1,2-a][1,4]diazonin]-12′-yl)oxy)methyl butyrate] | 1.78 | 20400
CCCCC(=O)OCOc1c2n(cc(C(=O)NCc3ccc(F)cc3F)c1=O)[C@@H]1CN(C2=O)[C@@H](C)CC[C@]12CC(OC)=NO2 [Example 89, (((3′S,5S,7′R)-10′-((2,4-difluorobenzyl)carbamoyl)-3-methoxy-3′-methyl-1′,11′-dioxo-1′,4′,5′,11′-tetrahydro-3′H,4H,7′H-spiro[isoxazole-5,6′-[2,7]methanopyrido[1,2-a][1,4]diazonin]-12′-yl)oxy)methyl pentanoate] | 0.2 | 15800
CCCCC(=O)OCOc1c2n(cc(C(=O)NCc3ccc(F)cc3F)c1=O)[C@@H]1CN(C2=O)[C@@H](C)CC[C@]12CC(C)=NO2 [Example 90, (((3′S,5S,7′R)-10′-((2,4-difluorobenzyl)carbamoyl)-3,3′-dimethyl-1′,11′-dioxo-1′,4′,5′,11′-tetrahydro-3′H,4H,7′H-spiro[isoxazole-5,6′-[2,7]methanopyrido[1,2-a][1,4]diazonin]-12′-yl)oxy)methyl pentanoate] | 0.176 | 18200
CCCCCC(=O)OCOc1c2n(cc(C(=O)NCc3ccc(F)cc3F)c1=O)[C@@H]1CN(C2=O)[C@@H](C)CC[C@]12CC(OC)=NO2 [Example 91, (((3′S,5S,7′R)-10′-((2,4-difluorobenzyl)carbamoyl)-3-methoxy-3′-methyl-1′,11′-dioxo-1′,4′,5′,11′-tetrahydro-3′H,4H,7′H-spiro[isoxazole-5,6′-[2,7]methanopyrido[1,2-a][1,4]diazonin]-12′-yl)oxy)methyl hexanoate] | 1.86 | 37300
CCCCCC(=O)OCOc1c2n(cc(C(=O)NCc3ccc(F)cc3F)c1=O)[C@@H]1CN(C2=O)[C@@H](C)CC[C@]12CC(C)=NO2 [Example 92, (((3′S,5S,7′R)-10′-((2,4-difluorobenzyl)carbamoyl)-3,3′-dimethyl-1′,11′-dioxo-1′,4′,5′,11′-tetrahydro-3′H,4H,7′H-spiro[isoxazole-5,6′-[2,7]methanopyrido[1,2-a][1,4]diazonin]-12′-yl)oxy)methyl hexanoate] | 2.14 | 21500
CCCCCCC(=O)OCOc1c2n(cc(C(=O)NCc3ccc(F)cc3F)c1=O)[C@@H]1CN(C2=O)[C@@H](C)CC[C@]12CC(OC)=NO2 [Example 93, (((3′S,5S,7′R)-10′-((2,4-difluorobenzyl)carbamoyl)-3-methoxy-3′-methyl-1′,11′-dioxo-1′,4′,5′,11′-tetrahydro-3′H,4H,7′H-spiro[isoxazole-5,6′-[2,7]methanopyrido[1,2-a][1,4]diazonin]-12′-yl)oxy)methyl heptanoate] | 2.63 | 19500
CCCCCCC(=O)OCOc1c2n(cc(C(=O)NCc3ccc(F)cc3F)c1=O)[C@@H]1CN(C2=O)[C@@H](C)CC[C@]12CC(C)=NO2 [Example 94, (((3′S,5S,7′R)-10′-((2,4-difluorobenzyl)carbamoyl)-3,3′-dimethyl-1′,11′-dioxo-1′,4′,5′,11′-tetrahydro-3′H,4H,7′H-spiro[isoxazole-5,6′-[2,7]methanopyrido[1,2-a][1,4]diazonin]-12′-yl)oxy)methyl heptanoate] | 2.73 | 17600
CCCCCCCC(=O)OCOc1c2n(cc(C(=O)NCc3ccc(F)cc3F)c1=O)[C@@H]1CN(C2=O)[C@@H](C)CC[C@]12CC(OC)=NO2 [Example 95, (((3′S,5S,7′R)-10′-((2,4-difluorobenzyl)carbamoyl)-3-methoxy-3′-methyl-1′,11′-dioxo-1′,4′,5′,11′-tetrahydro-3′H,4H,7′H-spiro[isoxazole-5,6′-[2,7]methanopyrido[1,2-a][1,4]diazonin]-12′-yl)oxy)methyl octanoate] | 0.998 | ≥ 50000
CCCCCCCC(=O)OCOc1c2n(cc(C(=O)NCc3ccc(F)cc3F)c1=O)[C@@H]1CN(C2=O)[C@@H](C)CC[C@]12CC(C)=NO2 [Example 96, (((3′S,5S,7′R)-10′-((2,4-difluorobenzyl)carbamoyl)-3,3′-dimethyl-1′,11′-dioxo-1′,4′,5′,11′-tetrahydro-3′H,4H,7′H-spiro[isoxazole-5,6′-[2,7]methanopyrido[1,2-a][1,4]diazonin]-12′-yl)oxy)methyl octanoate] | 0.562 | ≥ 50000
CCCCCCCCC(=O)OCOc1c2n(cc(C(=O)NCc3ccc(F)cc3F)c1=O)[C@@H]1CN(C2=O)[C@@H](C)CC[C@]12CC(OC)=NO2 [Example 97, (((3′S,5S,7′R)-10′-((2,4-difluorobenzyl)carbamoyl)-3-methoxy-3′-methyl-1′,11′-dioxo-1′,4′,5′,11′-tetrahydro-3′H,4H,7′H-spiro[isoxazole-5,6′-[2,7]methanopyrido[1,2-a][1,4]diazonin]-12′-yl)oxy)methyl nonanoate] | 4.59 | ≥ 50000
CCCCCCCCC(=O)OCOc1c2n(cc(C(=O)NCc3ccc(F)cc3F)c1=O)[C@@H]1CN(C2=O)[C@@H](C)CC[C@]12CC(C)=NO2 [Example 98, (((3′S,5S,7′R)-10′-((2,4-difluorobenzyl)carbamoyl)-3,3′-dimethyl-1′,11′-dioxo-1′,4′,5′,11′-tetrahydro-3′H,4H,7′H-spiro[isoxazole-5,6′-[2,7]methanopyrido[1,2-a][1,4]diazonin]-12′-yl)oxy)methyl nonanoate] | 3.87 | ≥ 50000
CCCCCCCCCC(=O)OCOc1c2n(cc(C(=O)NCc3ccc(F)cc3F)c1=O)[C@@H]1CN(C2=O)[C@@H](C)CC[C@]12CC(OC)=NO2 [Example 99, (((3′S,5S,7′R)-10′-((2,4-difluorobenzyl)carbamoyl)-3-methoxy-3′-methyl-1′,11′-dioxo-1′,4′,5′,11′-tetrahydro-3′H,4H,7′H-spiro[isoxazole-5,6′-[2,7]methanopyrido[1,2-a][1,4]diazonin]-12′-yl)oxy)methyl decanoate] | 0.471 | ≥ 50000
CCCCCCCCCC(=O)OCOc1c2n(cc(C(=O)NCc3ccc(F)cc3F)c1=O)[C@@H]1CN(C2=O)[C@@H](C)CC[C@]12CC(C)=NO2 [Example 100, (((3′S,5S,7′R)-10′-((2,4-difluorobenzyl)carbamoyl)-3,3′-dimethyl-1′,11′-dioxo-1′,4′,5′,11′-tetrahydro-3′H,4H,7′H-spiro[isoxazole-5,6′-[2,7]methanopyrido[1,2-a][1,4]diazonin]-12′-yl)oxy)methyl decanoate] | 0.246 | ≥ 50000
CCCCCCCCCCCC(=O)OCOc1c2n(cc(C(=O)NCc3ccc(F)cc3F)c1=O)[C@@H]1CN(C2=O)[C@@H](C)CC[C@]12CC(OC)=NO2 [Example 101, (((3′S,5S,7′R)-10′-((2,4-difluorobenzyl)carbamoyl)-3-methoxy-3′-methyl-1′,11′-dioxo-1′,4′,5′,11′-tetrahydro-3′H,4H,7′H-spiro[isoxazole-5,6′-[2,7]methanopyrido[1,2-a][1,4]diazonin]-12′-yl)oxy)methyl dodecanoate] | 5.79 | ≥ 50000
CCCCCCCCCCCC(=O)OCOc1c2n(cc(C(=O)NCc3ccc(F)cc3F)c1=O)[C@@H]1CN(C2=O)[C@@H](C)CC[C@]12CC(C)=NO2 [Example 102, (((3′S,5S,7′R)-10′-((2,4-difluorobenzyl)carbamoyl)-3,3′-dimethyl-1′,11′-dioxo-1′,4′,5′,11′-tetrahydro-3′H,4H,7′H-spiro[isoxazole-5,6′-[2,7]methanopyrido[1,2-a][1,4]diazonin]-12′-yl)oxy)methyl dodecanoate] | 4.96 | ≥ 50000
